From PMC10666288, “Unveiling the Catalytic Mechanism of a Processive Metalloaminopeptidase” (Biochemistry, 2023) come the findings set out here.

Common to all, as to design: GG stays after cleavage) (N); made in house; host or cells: E. coli BL21(DE3)
Assay [1] deals with T1, PaPepA (Pseudomonas aeruginosa, UniProt Q02RY8). The assay can be described thus: Isothermal titration calorimetry of metal binding. The method, then:
Purified PaPepA (100 μM) was buffer exchanged into ITC buffer (50 mM Tris, 140 mM NaCl, pH 7.4) using a Millipore Amicon Ultra-4 centrifugal unit (10 kDa MWCO). The protein was syringe-filtered through a […] and diluted to 50 μM. 3 mL solutions of filtered metal were also prepared. A 400 μM solution of MnCl2 and a 1 mM solution of MgCl2 were prepared by dilution of 1 M metal chloride stocks (Sigma) into ITC buffer.
Buffer, protein, and metal solutions were degassed. Following extensive washes with ITC buffer, the protein was loaded into the cell (volume 1.43 mL) of a VP-ITC (MicroCal) and MnCl2 or MgCl2 solution was loaded into the syringe (total volume 300 μL). Experiments were carried out using the following settings: temperature = 25 °C, duration = 4 s, spacing = 210 s, filter period = 2 s, for 35 injections (one injection of 2 μL followed by 34 injections of 8 μL). Data were analyzed using Origin(Pro), Version 2021 (OriginLab Corporation, Northampton, Massachusetts, USA), and MicroCal PEAQ-ITC analysis software (Malvern).
(In general: In ITC the heat of successive injections is recorded.)

The target in assay [2] is T1, PaPepA. The assay can be described thus: Pre-steady-state stopped-flow kinetics with global fit. In kind it is biochemical. The method, then: An Applied Photophysics SX20 stopped-flow spectrofluorimeter was used to perform kinetic measurements under pre-steady-state conditions. The instrument was equipped with a xenon lamp, a 5 μL mixing cell, and a circulating water bath to maintain constant temperature. All reactions were carried out in 100 mM HEPES (pH 8.0) and 50 mM KCl at 25 °C. Enzyme and metal ions were kept in one syringe, while the other substrate (Leu-pNA or Leu-AMC) was kept in the second syringe. The reaction was triggered by rapid mixing of 55 μL from each syringe. Three traces with 10,000 points per trace were collected per experiment.
For absorbance measurements, product formation was monitored by reading the pNA absorbance at 405 nm (5 mm path length). Multiple turnover rates were measured in the presence of saturating concentrations of both metal and Leu-pNA. PaPepA was present at 1 or 10 μM, MnCl2 was present at 3 mM, and Leu-pNA was present at 250 μM. For fluorescence measurements, a path length of 1 mm was used. Reactions were followed by monitoring the appearance of a 7-amino-4-methylcoumarin (AMC) fluorophore following PaPepA-catalyzed breakdown of Leu-AMC. An excitation wavelength of 341 nm was used with a 400 nm cutoff filter for the emission. Slits were 1 nm for excitation and 2 nm for emission.
Experiments under single turnover conditions monitored fluorescence change with a detector voltage of 300 V, 0.1 μM Leu-AMC, 1.5 mM MnCl2, and varying PaPepA (0.5, 1, 2, 4, 8, 16, or 32 μM). Experiments under multiple turnover conditions monitored fluorescence change with a detector voltage of 250 V, 50 μM Leu-AMC, 1.2 μM PaPepA and varying concentrations of MnCl2 (0.2, 0.4, 0.6, 1.2, 2.4, 6, 9, 12, 18, 24, 60, 120, 1200, or 3600 μM).
Calibration curves of known concentrations of AMC were performed at detector voltages of 250 and 300 V. STO and MTO curves were divided by the slope of these calibration curves to convert the change in fluorescence observed to the concentration of AMC produced.
Pre-steady-state data were imported into KinTek Global Explorer and fit to linear or single-exponential equations using the aFit function to obtain standard deviation estimates. A kinetic model with five steps was considered, and rate constants and outputs were fitted according to this model. Initial estimates for rate constants were based on kcat and KM values. The FitSpace Editor was employed to determine confidence intervals for each of the rate constants. More details including model fitted and parameters used are available in the Supporting Information.
Supporting information note 4: Kintek Global Explorer fitting of stopped flow data Both MTO and STO pre-steady-state data were fit according to the mode described in Figure 4A with scaling factors for each fluorescent species (EP and P) to account for differences in AMC fluorescence whilst in complex with PaPepA versus free in solution. Scaling factors were different across STO and MTO experiments as both were carried out using different detector voltages.
The model that best fitted acquired data was as below, where F is metal free enzyme, E1 is PaPepA with one Mn2+ ion, E is PepA with two Mn2+ ions, S is Leu- […]
For fitting, k1 and k-1 ratios were constrained (linked) based KD for Mn2+ binding as measured by ITC (12nM). Initially, k2 and k-2 were allowed to vary without constraints, and values best fitted as well as Fitspace lower and upper boundaries are reported in Table 2. The value for k1 was best fitted as diffusion limited, and therefore was fixed in further fitting cycles. The best fitted value for k-2 was high and unconstrained, and therefore also fixed at 1000 s-1 for further fitting cycles. k3, k-3, k4, and k5 were not constrained. Multiple iterations of fitting were performed, and best fit values recorded. k1, k2, k3, k-3, k4, and k5 were evaluated using FitSpace Explorer to generate confidence intervals for each of these rate constants. […]

The target of assay [3] is T1, PaPepA. It counts as biochemical.
[4] abbreviates: multiple turnover, 50 μM Leu-AMC, […] PaPepA.

Each structure is given as a SMILES string.

One may read the Kd as the concentration at which binding is half-saturated.

T1 sequence (Q02RY8 whole entry): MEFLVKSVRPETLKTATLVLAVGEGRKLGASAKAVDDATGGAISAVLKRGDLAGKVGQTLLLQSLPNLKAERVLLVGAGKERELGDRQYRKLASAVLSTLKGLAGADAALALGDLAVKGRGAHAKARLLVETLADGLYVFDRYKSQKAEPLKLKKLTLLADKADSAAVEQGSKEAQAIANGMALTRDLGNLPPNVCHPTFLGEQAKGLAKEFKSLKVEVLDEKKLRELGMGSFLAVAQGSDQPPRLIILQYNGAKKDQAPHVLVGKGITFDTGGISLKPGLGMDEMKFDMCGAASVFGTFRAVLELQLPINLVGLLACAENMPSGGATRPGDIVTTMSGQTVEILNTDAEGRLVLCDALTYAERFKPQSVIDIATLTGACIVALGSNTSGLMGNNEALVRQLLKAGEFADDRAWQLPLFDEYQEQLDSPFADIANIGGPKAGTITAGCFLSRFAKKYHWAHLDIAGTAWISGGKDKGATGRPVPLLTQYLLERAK

Turning to `[Mn+2]` [Mn^2+], on PaPepA [1] (ITC titration curves), the “greater affinity for Mn^2+ than Mg^2+” value is reported as “approximately 150 times”. In addition, the Kd on PaPepA [1] (ITC, first line per metal: N 1, [PepA] 35.80 ± 1.5 (Mn) or 32.60 (Mg) µM, [Metal] 400.0 or 1000 µM) is 0.0122 ± 0.0015 µM; on PaPepA [1] (ITC, one binding site per monomer, 25 °C, pH 7.4) it was 0.0136 ± 0.0005 µM; at PaPepA [1] (ITC, one binding site per monomer, 25 °C, pH 7.4, listed as Mn2+) it was 0.012 µM; on PaPepA [1] (ITC, second line per metal: N 1, [PepA] 47.00 or 48.00 µM, [Metal] 526.5 ± 22.5 (Mn) or 1470 (Mg) µM), 0.0163 ± 1e-05 µM; at PaPepA [1] (ITC, third line per metal: N fitted, [PepA] 47.00 or 48.00 µM, [Metal] 400.0 or 1000 µM), 0.0122 ± 0.0001 µM. At PaPepA [1] (ITC, third line per metal: N fitted), this compound displayed an N of 0.76 ± 0.03. Besides, at PaPepA [2] (F + Mn = E1, global fit of MTO and STO data), the “k1, best-fitted value” was found to be 1000 ± 53 μM^–1 s^–1. Further, the “molar excess of metal over PaPepA at half maximal rate” value at PaPepA [2] (setting [4]) is 24 fold. The “molar excess of metal over PaPepA at plateau” value on PaPepA [2] (setting [4]) was 300 fold. This compound came in with a KACT on PaPepA [3] (5 % PEG 8000, MnCl2 varied) of 0.19 ± 0.03. In addition, the kcat/KACT on PaPepA [3] (5 % PEG 8000, MnCl2 varied) is listed as 2.2 ± 0.4. On PaPepA [3] (5 % PEG 8000, labelled component varied, other saturating, in 1/s), the kcat is reported as 0.43 ± 0.02.
